Laboratory results: patent US12129266B2, “Substituted pyrazolo[1,5-a]pyridine compound, composition containing the same and use thereof” (Shenzhen TargetRx, Inc., priority 2018, dated 2024)

Experiments:
[1] = Metabolic stability evaluation, liver microsome assay (RLM); assay type: in vitro ADME, SD rat; settings: Sprague-Dawley, pH 7.4, rat liver microsomes 0.5 mg/mL, compound 1 μM, NADPH, 37° C.; for half-life at 1 μM: read-out: RLM t1/2
Protocol: (§1) Microsome assay: human liver microsomes (HLM): 0.5 mg/mL, Xenotech; rat liver microsomes (RLM): 0.5 mg/mL, Xenotech; mice liver microsomes (MLM): 0.5 mg/mL, Xenotech; coenzyme (NADPH/NADH): 1 mM, Sigma Life Science; magnesium chloride: 5 mM, 100 mM phosphate buffer (pH is 7.4).
(§2) Preparation of stock solution: a certain amount of powder of the example compound and the reference compound were accurately weighed, and dissolved to 5 mM with DMSO, respectively.
(§3) Preparation of phosphate buffer (100 mM, pH7.4): Pre-formulated 150 mL 0.5 M potassium dihydrogen phosphate and 700 mL 0.5 M dipotassium hydrogen phosphate solution were mixed, then the pH of the mixture was adjusted to 7.4 with 0.5 M dipotassium hydrogen phosphate solution. Before use, 5-fold dilution was made with ultra-pure water, and magnesium chloride was added to afford phosphate buffer (100 mM), which containing 100 mM potassium phosphate, 3.3 mM magnesium chloride, pH is 7.4.
(§4) NADPH regeneration system solution (containing 6.5 mM NADP, 16.5 mM G-6-P, 3 U/mL G-6-P D, 3.3 mM magnesium chloride) was prepared and placed on wet ice before use.
(§5) Preparation of stop solution: Acetonitrile solution containing 50 ng/mL propranolol hydrochloride and 200 ng/mL tolbutamide (internal standard). 25057.5 μL phosphate buffer (pH 7.4) was taken into a 50 mL centrifuge tube, and 812.5 μL human liver microsome was added, mixed well to afford liver microsome diluent with a protein concentration of 0.625 mg/mL. 25057.5 μL phosphate buffer (pH 7.4) was taken into a 50 mL centrifuge tube, and 812.5 μL SD rat liver microsome was added, respectively, mixed well to afford liver microsome diluent with a protein concentration of 0.625 mg/mL. 25057.5 μL phosphate buffer (pH 7.4) was taken into a 50 mL centrifuge tube, and 812.5 μL mice liver microsome was added, respectively, mixed well to afford liver microsome diluent with a protein concentration of 0.625 mg/mL.
(§6) Incubation of the sample: The stock solutions of the corresponding compounds were diluted to 0.25 mM with an aqueous solution containing 70% acetonitrile as working solutions for use. 398 μL of human liver microsome or rat liver microsome or mice liver microsome diluent was taken and added to a 96-well incubation plate (N=2), respectively, and 2 μL of 0.25 mM working solution was then added respectively, and mixed well.
(§7) Determination of metabolic stability: 300 μL of pre-chilled stop solution was added to each well of a 96-well deep well plate and the plate was placed on ice as a stop plate. The 96-well incubation plate and NADPH regeneration system were placed in a 37° C. water bath box, shook at 100 rpm, and pre-incubated for 5 min. 80 μL of incubation solution was taken from each well of the incubation plate and added to the stop plate, mixed well, and 20 μL of NADPH regeneration system solution was supplemented, the resulted solution was considered as sample at 0 min. Then 80 μL of NADPH regeneration system solution was added to each well of the incubation plate to start the reaction and started timing. The reaction concentration of the corresponding compound is 1 μM, and the protein concentration is 0.5 mg/mL. 100 μL reaction solution was taken at 10, 30, 90 min of reaction, respectively, and added into stop plate, the reaction was stopped with 3 min vortex. The stop plate was centrifuged at 5000×g, 4° C. for 10 min. 100 μL of supernatant was taken to a 96-well plate where 100 μL of distilled water was added in advance, mixed well, sample analysis was subjected by LC-MS/MS.
(§8) Data analysis: LC-MS/MS system was used to detect peak area of corresponding compound and internal standard, peak area ratio of compound and internal standard was calculated.
(§9) [formula] t1/2(min); CLint(μL/min/mg).

[2] = Metabolic stability evaluation, liver microsome assay (MLM); assay type: in vitro ADME; settings: mouse, mouse liver microsomes, pH 7.4, mice liver microsomes 0.5 mg/mL, compound 1 μM, NADPH, 37° C.; for half-life at 1 μM: read-out: MLM t1/2
Protocol: as §1, §2, §3, §4, §5, §6, §7, §8, §9

[3] = Metabolic stability evaluation, liver microsome assay (HLM); assay type: in vitro ADME; settings: pH 7.4, human liver microsomes 0.5 mg/mL, compound 1 μM, NADPH, 37° C.; for half-life at 1 μM: read-out: HLM t1/2
Protocol: as §1, §2, §3, §4, §5, §6, §7, §8, §9

Ba/F3 parental = assay: cells; settings: Mus musculus, BaF3, 72 h, read-out: IC50 (nM) Ba/F3 parental
Ba/F3 KIF5B-RET^V804M = assay: Cytotoxicity assay (CellTiter-Glo), Ba/F3 KIF5B-RET V804M; assay type: cell-based; settings: Mus musculus, BaF3; cell viability, 72 hours, CTG
Ba/F3 KIF5B-RET = assay: Cytotoxicity assay (CellTiter-Glo), Ba/F3 KIF5B-RET; assay type: cell-based; settings: Mus musculus, BaF3; cell viability, 72 hours, CTG

SMILES	microsomal CLint at 1 μM [1] [µL/min/mg]	half-life at 1 μM [1] [min]	microsomal CLint at 1 μM [2] [µL/min/mg]	half-life at 1 μM [2] [min]	microsomal CLint at 1 μM [3] [µL/min/mg]	half-life at 1 μM [3] [min]	IC50 (Ba/F3 parental) [nM]	IC50 (Ba/F3 KIF5B-RET^V804M) [nM]	IC50 (Ba/F3 KIF5B-RET) [nM]
[2H]C([2H])([2H])Oc1ccc(CN2C3CC2CN(c2ccc(-c4cc(-c5cnn(C)c5)cn5ncc(C#N)c45)cn2)C3)cn1 [Example 1, 4-(6-(6-((6-(methoxy-d3)pyridin-3-yl)methyl)-3,6-diazabicyclo[3.1.1]heptan-3-yl)pyridin-3-yl)-6-(1-methyl-1H-pyrazol-4-yl)pyrazolo[1,5-a]pyridine-3-carbonitrile]	51.5	26.9	73.2	18.9	87.5	15.8	–	–	–
[2H]C([2H])(c1ccc(OC)nc1)N1C2CC1CN(c1ccc(-c3cc(-c4cnn(C)c4)cn4ncc(C#N)c34)cn1)C2 [Example 2, 4-(6-(6-((6-methoxypyridin-3-yl)methyl-d2)-3,6-diazabicyclo[3.1.1]heptan-3-yl)pyridin-3-yl)-6-(1-methyl-1H-pyrazol-4-yl)pyrazolo[1,5-a]pyridine-3-carbonitrile]	35.1	39.5	78.3	17.7	105	13.2	–	–	–
[2H]C([2H])([2H])Oc1ccc(C([2H])([2H])N2C3CC2CN(c2ccc(-c4cc(-c5cnn(C)c5)cn5ncc(C#N)c45)cn2)C3)cn1 [Example 3, 4-(6-(6-((6-(methoxy-d3)pyridin-3-yl)methyl-d2)-3,6-diazabicyclo[3.1.1]heptan-3-yl)pyridin-3-yl)-6-(1-methyl-1H-pyrazol-4-yl)pyrazolo[1,5-a]pyridine-3-carbonitrile]	55.3	25.1	68.8	20.2	85.6	16.2	–	–	–
[2H]C([2H])([2H])Oc1ccc(CN2C3CC2CN(c2ccc(-c4cc(-c5cnn(C([2H])([2H])[2H])c5)cn5ncc(C#N)c45)cn2)C3)cn1 [Example 4, 4-(6-(6-((6-(methoxy-d3)pyridin-3-yl)methyl)-3,6-diazabicyclo[3.1.1]heptan-3-yl)pyridin-3-yl)-6-(1-(methyl-d3)-1H-pyrazol-4-yl)pyrazolo[1,5-a]pyridine-3-carbonitrile]	49.1	28.2	63.5	21.8	97.9	14.2	–	–	–
[2H]C([2H])(c1ccc(OC)nc1)N1C2CC1CN(c1ccc(-c3cc(-c4cnn(C([2H])([2H])[2H])c4)cn4ncc(C#N)c34)cn1)C2 [Example 5, 4-(6-(6-((6-methoxypyridin-3-yl)methyl-d2)-3,6-diazabicyclo[3.1.1]heptan-3-yl)pyridin-3-yl)-6-(1-(methyl-d3)-1H-pyrazol-4-yl)pyrazolo[1,5-a]pyridine-3-carbonitrile]	37.9	36.6	75.8	18.3	83.2	16.7	–	–	–
[2H]C([2H])([2H])Oc1ccc(C([2H])([2H])N2C3CC2CN(c2ccc(-c4cc(-c5cnn(C([2H])([2H])[2H])c5)cn5ncc(C#N)c45)cn2)C3)cn1 [Example 6, 4-(6-(6-((6-(methoxy-d3)pyridin-3-yl)methyl-d2)-3,6-diazabicyclo[3.1.1]heptan-3-yl)pyridin-3-yl)-6-(1-(methyl-d3)-1H-pyrazol-4-yl)pyrazolo[1,5-a]pyridine-3-carbonitrile]	47.3	29.3	65	21.3	112	12.4	–	–	–
[2H]C([2H])([2H])n1cc(-c2cc(-c3ccc(N4CC5CC(C4)N5Cc4ccc(OC)nc4)nc3)c3c(C#N)cnn3c2)cn1 [Example 7, 4-(6-(6-((6-methoxypyridin-3-yl)methyl)-3,6-diazabicyclo[3.1.1]heptan-3-yl)pyridin-3-yl)-6-(1-(methyl-d3)-1H-pyrazol-4-yl)pyrazolo[1,5-a]pyridine-3-carbonitrile]	11.3	122	76	18.2	11.1	124	–	–	–
[2H]C([2H])(c1ccc(OC)nc1)N1C2CC1CN(c1ccc(-c3cc(OC[C@H]4CNCCO4)cn4ncc(C#N)c34)cn1)C2 [Example 8]	5.3	263	5.8	237	10.6	131	3360	–	–
[2H]C([2H])(c1ccc(OC)nc1)N1C2CC1CN(c1ccc(-c3cc(OCC(C)(C)O)cn4ncc(C#N)c34)cn1)C2 [Example 11, 6-(2-hydroxy-2-methylpropoxy)-4-(6-(6-((6-methoxypyridin-3-yl)methyl-d2)-3,6-diazabicyclo[3.1.1]heptan-3-yl)pyridin-3-yl)pyrazolo[1,5-a]pyridine-3-carbonitrile]	11.7	118	44.8	30.9	96.2	14.4	3510	40.5	19.1
[2H]C([2H])([2H])Oc1ccc(CN2C3CC2CN(c2ccc(-c4cc(OCC(C)(C)O)cn5ncc(C#N)c45)cn2)C3)cn1 [Example 12, 6-(2-hydroxy-2-methylpropoxy)-4-(6-(6-((6-(methoxy-d3)pyridin-3-yl)methyl)-3,6-diazabicyclo[3.1.1]heptan-3-yl)pyridin-3-yl)pyrazolo[1,5-a]pyridine-3-carbonitrile]	10.1	137	44.9	30.8	93.1	14.9	5930	45.2	16
[2H]C([2H])([2H])Oc1ccc(C([2H])([2H])N2C3CC2CN(c2ccc(-c4cc(OCC(C)(C)O)cn5ncc(C#N)c45)cn2)C3)cn1 [Example 13, 6-(2-hydroxy-2-methylpropoxy)-4-(6-(6-((6-(methoxy-d3)pyridin-3-yl)methyl-d2)-3,6-diazabicyclo[3.1.1]heptan-3-yl)pyridin-3-yl)pyrazolo[1,5-a]pyridine-3-carbonitrile]	10.8	128	42.8	32.4	92.2	15	> 10000	90	23.5
